Measured values published in paper PMC8374649, “IBI362 (LY3305677), a weekly-dose GLP-1 and glucagon receptor dual agonist, in Chinese adults with overweight or obesity: A randomised, placebo-controlled, multiple ascending dose phase 1b study” (EClinicalMedicine, 2021).

System: Chinese adults with overweight or obesity
Assay: Safety and tolerability (treatment emergent adverse events), multiple ascending dose phase 1b study
Type: in vivo, human
Settings: n = 8
Description: The study included a 3-week screening period, a 12-week treatment period and an 8-week safety follow-up period. During the 12-week treatment period, the dose of IBI362 or placebo was escalated within each cohort according to one of the three dose-escalation schedules (Fig. S1). The dose-escalation regimen for the 3.0 mg cohort was 1.0 mg for 4 weeks, followed by 2.0 mg for 4 weeks and then 3.0 mg for the final 4 weeks. The dose-escalation regimen for the 4.5 mg cohort was 1.5 mg for 4 weeks, followed by 3.0 mg for 4 weeks and then 4.5 mg for the final 4 weeks. The dose-escalation regimen for the 6.0 mg cohort was 2.0 mg for 4 weeks, followed by 4.0 mg for 4 weeks and then 6.0 mg for the final 4 weeks. The 6.0 mg cohort started dosing after tolerability evaluation of 1.5 mg dosing in the 4.5 mg cohort. The internal unblinded safety monitoring group was responsible for the safety monitoring. All treatments were subcutaneously administered once a week. Investigators and authorized study personnel in each centre recorded the study data into the electronic case report forms (eCRFs), which were reviewed and validated by clinical research associates (CRAs). The data in the eCRFs were submitted to the electronic data capture (EDC) database. HbA1c, fasting plasma glucose and fasting insulin tests were performed in a central lab (Wuxi AppTec Inc.).
The primary endpoints of the study were safety and tolerability of IBI362. Adverse events (AEs) were categorised according to the Medical Dictionary for Regulatory Activities system organ class and preferred terms. Treatment emergent adverse events (TEAEs) and serious adverse events were monitored in all participants throughout the treatment period and the safety follow-up period. The severity of the AEs (mild, moderate or severe) and the association between an AE and the study drug was assessed by investigators based on pre-specified criteria.
Safety analyses were done in the safety population (defined as all participants who received at least one dose of the study treatment). Pharmacokinetic analyses were done in the pharmacokinetic population (defined as all participants who received at least one dose of IBI362 and had at least one valid plasma concentration assessment). Pharmacodynamic analyses were done in the pharmacodynamic population (defined as all participants who received at least one dose of the study treatment and had baseline and at least one valid assessment). Efficacy analyses were done in the efficacy population (defined as all participants who received at least one dose of the study treatment and had at least one post-baseline assessment).

[1] = 3.0 mg cohort (1.0-2.0-3.0 mg sc once weekly, 4 weeks each)
[2] = 4.5 mg cohort (1.5-3.0-4.5 mg sc once weekly, 4 weeks each)

CC(C)C[C@H](NC(=O)[C@H](CC(C)C)NC(=O)[C@H](Cc1c[nH]c2ccccc12)NC(=O)[C@H](CCC(=O)O)NC(=O)[C@@H](NC(=O)[C@H](Cc1ccccc1)NC(=O)[C@H](CCC(=O)O)NC(=O)[C@H](CCCCNC(=O)COCCOCCNC(=O)COCCOCCNC(=O)CC[C@H](NC(=O)CCCCCCCCCCCCCCCCCCC(=O)O)C(=O)O)NC(=O)[C@H](C)NC(=O)[C@H](CCCCN)NC(=O)[C@H](CCCCN)NC(=O)[C@H](CCC(=O)O)NC(=O)[C@H](CC(=O)O)NC(=O)[C@H](CC(C)C)NC(=O)[C@H](Cc1ccc(O)cc1)NC(=O)[C@H](CCCCN)NC(=O)[C@H](CO)NC(=O)[C@H](Cc1ccc(O)cc1)NC(=O)[C@H](CC(=O)O)NC(=O)[C@H](CO)NC(=O)[C@@H](NC(=O)[C@H](Cc1ccccc1)NC(=O)[C@@H](NC(=O)CNC(=O)[C@H](CCC(N)=O)NC(=O)C(C)(C)NC(=O)[C@@H](N)Cc1c[nH]cn1)[C@@H](C)O)[C@@H](C)O)C(C)C)C(=O)N[C@@H](CCC(=O)O)C(=O)NCC(=O)NCC(=O)N1CCC[C@H]1C(=O)N[C@@H](CO)C(=O)N[C@@H](CO)C(=O)NCC(N)=O [IBI362]
Abdominal distension [1]: 1 (12.5) n (%)
Abdominal pain [1]: 0 n (%)
Atrioventricular block first degree [1]: 1 (12.5) n (%)
Back pain [1]: 1 (12.5) n (%)
Blood glucose increased [1]: 0 n (%)
Calculus urinary [1]: 1 (12.5) n (%)
Cardiac disorders (system organ class) [1]: 1 (12.5) n (%)
Constipation [1]: 1 (12.5) n (%)
Decreased appetite [1]: 1 (12.5) n (%)
Diarrhea [1]: 0 n (%)
Dry mouth [1]: 0 n (%)
Dyslipidaemia [1]: 0 n (%)
Dysmenorrhoea [1]: 1 (12.5) n (%)
Dyspepsia [1]: 0 n (%)
Fatigue [1]: 0 n (%)
Folliculitis [1]: 0 n (%)
Gastrointestinal AE, Mild [1]: 2 (25.0) n (%)
Gastrointestinal AE, Moderate [1]: 1 (12.5) n (%)
Gastrointestinal disorders (system organ class) [1]: 4 (50.0) n (%)
Gastrointestinal inflammation [1]: 1 (12.5) n (%)
General disorders and administration site conditions (system organ class) [1]: 1 (12.5) n (%)
Hiccups [1]: 0 n (%)
Hyperlipidaemia [1]: 0 n (%)
Hyperuricaemia [1]: 0 n (%)
Hypoglycaemia event [1]: 0 n (%)
Infections and infestations (system organ class) [1]: 4 (50.0) n (%)
Injury, poisoning and procedural complications (system organ class) [1]: 1 (12.5) n (%)
Investigations (system organ class) [1]: 0 n (%)
Menstruation irregular [1]: 0 n (%)
Mental fatigue [1]: 0 n (%)
Metabolism and nutrition disorders (system organ class) [1]: 1 (12.5) n (%)
Mouth ulceration [1]: 1 (12.5) n (%)
Musculoskeletal and connective tissue disorders (system organ class) [1]: 1 (12.5) n (%)
Myocardial ischemia [1]: 0 n (%)
Nasopharyngitis [1]: 1 (12.5) n (%)
Nausea [1]: 0 n (%)
Neutrophil count increased [1]: 0 n (%)
Oropharyngeal pain [1]: 0 n (%)
Proteinuria [1]: 0 n (%)
Psychiatric disorders (system organ class) [1]: 0 n (%)
Pyrexia [1]: 1 (12.5) n (%)
Renal and urinary disorders (system organ class) [1]: 1 (12.5) n (%)
Reproductive system and breast disorders (system organ class) [1]: 1 (12.5) n (%)
Respiratory, thoracic and mediastinal disorders (system organ class) [1]: 0 n (%)
Serious adverse event [1]: 0 n (%)
Sinus tachycardia [1]: 0 n (%)
Skin and subcutaneous tissue disorders (system organ class) [1]: 1 (12.5) n (%)
Soft tissue injury [1]: 1 (12.5) n (%)
Starvation [1]: 0 n (%)
TEAE (individuals with ≥ 1 TEAE) [1]: 6 (75.0) n (%)
Thermal burn [1]: 0 n (%)
Tonsillitis [1]: 1 (12.5) n (%)
Treatment-related AE [1]: 3 (37.5) n (%)
Upper respiratory tract infection [1]: 2 (25.0) n (%)
Urticaria [1]: 1 (12.5) n (%)
Vomiting [1]: 1 (12.5) n (%)
White blood cell count increased [1]: 0 n (%)
Abdominal distension [2]: 0 n (%)
Abdominal pain [2]: 2 (25.0) n (%)
Atrioventricular block first degree [2]: 0 n (%)
Back pain [2]: 0 n (%)
Blood glucose increased [2]: 0 n (%)
Calculus urinary [2]: 0 n (%)
Cardiac disorders (system organ class) [2]: 2 (25.0) n (%)
Constipation [2]: 0 n (%)
Decreased appetite [2]: 5 (62.5) n (%)
Diarrhea [2]: 3 (37.5) n (%)
Dry mouth [2]: 2 (25.0) n (%)
Dyslipidaemia [2]: 1 (12.5) n (%)
Dysmenorrhoea [2]: 0 n (%)
Dyspepsia [2]: 0 n (%)
Fatigue [2]: 1 (12.5) n (%)
Folliculitis [2]: 0 n (%)
Gastrointestinal AE [2]: 5 (62.5) n (%)
Gastrointestinal AE, Mild [2]: 5 (62.5) n (%)
Gastrointestinal AE, Moderate [2]: 0 n (%)
Gastrointestinal disorders (system organ class) [2]: 5 (62.5) n (%)
Gastrointestinal inflammation [2]: 0 n (%)
General disorders and administration site conditions (system organ class) [2]: 1 (12.5) n (%)
Hiccups [2]: 0 n (%)
Hyperlipidaemia [2]: 0 n (%)
Hyperuricaemia [2]: 1 (12.5) n (%)
Hypoglycaemia event [2]: 0 n (%)
Infections and infestations (system organ class) [2]: 2 (25.0) n (%)
Injury, poisoning and procedural complications (system organ class) [2]: 1 (12.5) n (%)
Investigations (system organ class) [2]: 1 (12.5) n (%)
Menstruation irregular [2]: 0 n (%)
Mental fatigue [2]: 1 (12.5) n (%)
Metabolism and nutrition disorders (system organ class) [2]: 6 (75.0) n (%)
Mouth ulceration [2]: 0 n (%)
Musculoskeletal and connective tissue disorders (system organ class) [2]: 0 n (%)
